Structure (SMILES)	logP
COc1ccc(C#N)cc1OC	1.42
CCOc1ccc(C#N)cc1OC	2.06
CCOc1ccc(C#N)cc1Br	2.99
N#Cc1cccc([N+](=O)[O-])c1	1.3
CCOc1cc(C#N)ccc1O	1.36
COc1ccc(C#N)cc1Br	2.35
COc1cc(C#N)ccc1O	0.82
N#Cc1ccc(Cl)c(Cl)c1	2.98
N#Cc1ccc(O)c(Br)c1	1.75

Other lines, results leading:

logP	Structure (SMILES)
1.77	CCOc1ccc(C#N)cc1[N+](=O)[O-]
1.23	COc1ccc(C#N)cc1[N+](=O)[O-]
2.42	N#Cc1ccc(Br)cc1
2.03	CCOc1ccc(C#N)cc1
2.63	CC(C)C(C#N)c1ccc([N+](=O)[O-])cc1 (configuration not stated)
2.68	COc1ccc(C(C#N)C(C)C)cc1 (configuration not stated)
2.89	CC(C)C(C#N)c1ccccc1 (configuration not stated)
1.49	COc1ccc(C#N)cc1
